Test results as given in patent US20090148850A1, “Methods for identifying modulators of P2RY14” (priority 2007, published 2009).

Assays:
mouse P2RY14 = target: T1, mouse P2RY14 (Mus musculus, UniProt Q9ESG6); experiment: CellKey System live cell functional assay, mouse P2RY14; type: cell-based; conditions: HEK cells expressing mouse P2RY14 and Gqi5
T1 construct: expressed in transfected cells
T1 sequence (Q9ESG6 1-338): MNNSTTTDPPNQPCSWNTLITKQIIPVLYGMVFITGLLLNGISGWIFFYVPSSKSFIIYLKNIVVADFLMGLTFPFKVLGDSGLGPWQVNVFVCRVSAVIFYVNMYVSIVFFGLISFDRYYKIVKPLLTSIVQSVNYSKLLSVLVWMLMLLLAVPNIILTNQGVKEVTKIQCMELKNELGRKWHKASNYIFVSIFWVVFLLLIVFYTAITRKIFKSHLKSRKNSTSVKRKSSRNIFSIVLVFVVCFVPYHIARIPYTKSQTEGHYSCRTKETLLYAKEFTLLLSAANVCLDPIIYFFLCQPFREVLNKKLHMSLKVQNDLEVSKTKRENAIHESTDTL
Experimental: The Cellkey System™ (MDS Sciex), a novel, live cell, label-free, real-time technology, was used to examine P2RY14 activation following agonist stimulation. The CellKey System™ is based on cellular dielectric spectroscopy (CDS) and monitors changes in impedance of the applied electrical current through the cell monolayer upon receptor activation.
On the following day, growth medium was removed from the cell monolayer and replaced with 135 μl of HBSS pH 7.4 containing 20 mM Hepes for a 30 minutes pre-incubation period at room temperature. Baseline measurements were made for 5 minutes at 28° C. prior to ligand addition. For agonist assays, 15 μl of 10× agonist diluted in HBSS pH 7.4 containing 20 mM HEPES was added to the cell monolayer simultaneously using the 96 multichannel head from the CellKey™ System. Cellular response was monitored for 10 minutes to assess cellular response after ligand addition.

P2RY14 = target: T2, P2RY14 (Homo sapiens, UniProt Q15391); experiment: FLIPR whole cell Ca2+ agonist assay, HEK cells expressing human P2RY14 and Gqi5; type: cell-based; design: expressed in transfected cells; conditions: HEK cells expressing human P2RY14 and Gqi5, FLIPR
T2 sequence (Q15391 1-338): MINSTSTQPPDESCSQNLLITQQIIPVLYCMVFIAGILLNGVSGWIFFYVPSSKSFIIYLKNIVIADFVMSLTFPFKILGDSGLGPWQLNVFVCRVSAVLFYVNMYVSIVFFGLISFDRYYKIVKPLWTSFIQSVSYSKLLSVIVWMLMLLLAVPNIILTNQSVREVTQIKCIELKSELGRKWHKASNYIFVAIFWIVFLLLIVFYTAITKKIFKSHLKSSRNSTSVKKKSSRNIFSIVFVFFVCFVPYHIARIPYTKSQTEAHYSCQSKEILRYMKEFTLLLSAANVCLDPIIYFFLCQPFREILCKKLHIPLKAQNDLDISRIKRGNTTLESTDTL
Excerpt: Stable HEK clonal cell lines expressing P2RY14 and the chimeric G protein Gqi5 were constructed. The chimeric Gqi5 forces the coupling of P2RY14 through the Gq (calcium) pathway and allows for monitoring of calcium signaling using a calcium binding fluorescent dye and a FLIPR (fluorometric imaging plate reader, MDS Sciex). Vector pCEP4 comprising the chimeric Gqi5 was obtained from Molecular Devices, Sunnyvale, Calif. (Cat. No. RD-PGQI5).
The human P2RY14 was PCR amplified from the I.M.A.G.E. clone obtained from Invitrogen, Carlsbad, Calif. […] The codon encoding glutamate at position 54 in the wild-type human P2RY14 was changed to code for lysine. […] The PCR reaction was done in two parts. In the first part, the reaction was 5 cycles at 94° C. for 30 seconds, 65° C. for 30 seconds, and 72° C. for 90 seconds. In the second part, the reaction was 25 cycles at 94° C. for 30 seconds, 70° C. for 30 seconds, 72° C. for 90 seconds. The last cycle was followed by 7 minutes at 72° C. The PCR amplified human P2RY14 was digested with KpnI and NotI and cloned into a pcDNA3.1 (+) vector previously digested with KpnI and NotI to place the DNA fragment in the proper orientation downstream of the CMV promoter. The nucleic acid encoding the human P2RY14 was under the control of the CMV promoter.
Cells were grown in DMEM medium containing 25 mM HEPES, pH 7.4 and 10% FBS, 50 units/ml penicillin/50 μg/ml streptomycin, 2 mM glutamine and 1 mM sodium pyruvate at 37° C. in humidified air containing 5% CO2. Two days post-transfection, cells were grown under selection in the DMEM medium as indicated above and supplemented with 200 μg/ml Hygromycin B and 250 μg/ml geneticin.
Cells were incubated overnight at 37° C. and 5% CO2 to form a monolayer. On the following day, 30 μl of fluorescent no-wash dye was added to the cell monolayer and the plate was incubated for 60 minutes at 37° C., 5% CO2.
For agonist assays, 6.12 μl of 10× agonist solution was added to the cell/dye incubation and Ca^2+ signaling was monitored by FLIPR. For antagonist assays, 250 nl of compound in 100% DMSO was added to cell/dye mixture; following a 20 minute incubation at room temperature, 6.12 μl of 10× agonist solution at EC80 in HBSS containing 20 mM Hepes was added to cells and Ca^2+ signaling was monitored by FLIPR. Quantitation of the % stimulation or inhibition of Ca^2+ signaling by agonist or antagonist, respectively, was calculated using the Max-Min fluorescent signal detected.

SMILES: O=c1ccn([C@@H]2O[C@H](COP(=O)(O)O)[C@@H](O)[C@H]2O)c(=O)[nH]1 [UMP]
- P2RY14 signaling (impedance, CellKey) (mouse P2RY14): mediated signaling
- activation of P2RY14 (Ca2+ signaling) (P2RY14): activated
